Laboratory results reported in patent US20240279191A1, “SMALL MOLECULE INHIBITORS OF TEAD-YAP” (The General Hospital Corporation, priority 2021, published 2024).

Columns and labels:
[1] = tested on: endogenous TEAD1-4 (pan-TEAD); test: Inhibition of endogenous pan-TEAD palmitoylation in HEK293A cells; type: cell-based
Description: HEK293A cells with or without TEAD overexpression were pretreated with DMSO or TM2 in medium with 10% dialyzed fetal bovine serum (DFBS) for 8 h and labeled by Alkynyl Palmitic acid (1165, Click Chemistry Tools) for another 16 h. The cells were then washed and harvested by cold DPBS (14190250, Life Technologies). The cell pellets were isolated by centrifugation (500×g, 10 min) and lysed by TEA lysis buffer (50 mM TEA-HCl, pH 7.4, 150 mM NaCl, 1% Triton X-100, 0.2% SDS, 1×Protease inhibitor-EDTA free cocktail (05892791001, Roche), phosphatase inhibitor cocktail (P0044, Sigma-Aldrich)) on ice for 30 mins. The protein concentration was determined using Bio-Rad assay and adjusted to 1 mg/mL. 100 μL of protein sample mixture was treated with 10 μL of freshly prepared “click” mixture containing 1 mM TBTA, 10 mM TCEP, 10 mM CuSO4, 1 mM TBTA Biotin-Azide and incubated for 1 h at room temperature. The proteins were precipitated by chloroform/methanol/H20 mixture and redissolved with 2% SDS in 0.1% PBST. The solution was diluted with 0.1% PBST and incubated with prewashed streptavidin agarose beads (69203-3, E M D MILLIPORE). After rotation at room temperature for 2 h, the beads were then pelleted by centrifugation (500×g, 3 min) and washed with 0.2% SDS in PBS (3×1 mL). The bound proteins were eluted with a buffer containing 10 mM EDTA pH 8.2 and 95% formamide and analyzed with SDS-PAGE. […]

[2] = tested on: YAP/TAZ-TEAD direct target genes; test: RNA-seq analysis in H226 cells; type: cell-based, Human; details: 1 μM TM2, versus K975 in H226 xenograft tumors (GSE156912), FIG. 7
Description: The NCI-H226 cells were treated with TM2 at 1 μM for 24 hours. Total RNA was isolated with RNeasy Mini Kit (74104, Qiagen). The integrity of isolated RNA was analyzed using Bioanalyzer (Agilent Technologies). and the RNA-seq libraries were made by Novogene. All libraries have at least 50 million reads sequenced (150 bp paired-end). The heatmaps were generated using different expressed genes from TM2 treatment in NCI-H226 cells with Motpheus (https://software.broadinstitute.org/morpheus/). Principle component analysis (PCA) was determined by PCA function in M3C package in R. Gene Set Enrichment Analysis (GSEA) was performed using GSEA software from Broad Institute (http://software.broadinstitute.org/gsea/index.jsp). The YAP_TAZ-TEAD Direct Target Genes set were generated with the published YAP/TAZ-TEAD target genes (Zanconato et al., 2015).

[3] = tested on: Mouse hepatic progenitor organoids; test: Immunofluorescence staining of Ki67 in organoids; type: cell-based; details: 40 nM, 3D culture
Description: Organoids were plated in 8 well chamber slide and fixed in 4% paraformaldehyde at 4° C. for 1h. After permeabilization in 0.5% PBST, organoids were blocked with 2% BSA for 2 h and incubated with primary antibody overnight at […]. Imaging was performed on Nikon A1RHD25 confocal microscope.

[4] = tested on: HCT116 cells; test: Drug combination matrix TM2 + Trametinib, HCT116; type: cell-based, Human; details: 5 doses TM2 x 9 doses trametinib, day 5, Bliss, FIG. 10
Description: (§1) The drug combination experiments were preformed using a drug combination matrix across 5 doses of TM2 (5 μM, 3-fold dilution) and 9 doses of Trametinib (10 μM, 3-fold dilution) in different tumor cell lines. Cell viability was determined at day 5 after the drugs administration by MTT. Drug synergy score was calculated followed Bliss rule. Synergy Score and Plot was generated by “Synergyfinder” package in R language.

[5] = tested on: DLD1 cells; test: Drug combination matrix TM2 + Trametinib, DLD1; type: cell-based, Human; details: 5 doses TM2 x 9 doses trametinib, day 5, Bliss, FIG. 8E
Description: as §1

[6] = tested on: PDL1 expression; test: PDL1 expression in cancer cell lines; type: cell-based
[7] = molecular target: DHODH(H) (Homo sapiens, UniProt Q02127); test: DHODH(H) (Table F1); details: three values in one cell
Chain of DHODH(H) (Q02127 whole entry): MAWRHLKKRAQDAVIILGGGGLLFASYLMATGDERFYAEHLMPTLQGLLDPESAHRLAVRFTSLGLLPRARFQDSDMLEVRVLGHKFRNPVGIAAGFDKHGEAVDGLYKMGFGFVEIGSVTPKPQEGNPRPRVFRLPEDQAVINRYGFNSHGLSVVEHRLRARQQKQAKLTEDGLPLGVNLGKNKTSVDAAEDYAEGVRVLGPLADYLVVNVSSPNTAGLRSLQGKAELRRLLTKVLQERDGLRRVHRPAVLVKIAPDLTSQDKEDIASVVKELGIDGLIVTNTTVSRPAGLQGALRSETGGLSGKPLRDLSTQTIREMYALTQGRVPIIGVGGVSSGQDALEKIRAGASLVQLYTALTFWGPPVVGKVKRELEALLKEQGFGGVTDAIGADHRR

[8] = tested on: KNS62; test: KNS62 growth inhibition (SAR tables); type: cell-based
[9] = tested on: HCC95; test: HCC95 growth inhibition (SAR tables); type: cell-based
[10] = Aqueous solubility (Aq Sol); type: physicochemical
[11] = Metabolic stability HLM; type: in vitro ADME, human
[12] = logD 7.4; details: pH 7.4
[13] = Metabolic stability MLM; details: % parent remained per Table G2
[14] = tested on: H226 cells; test: Cell proliferation assay (MTT), H226; details: Homo sapiens, NCI-H226, 144 h, read-out: IC50 H226 cell proliferation
[15] = tested on: DLD1 cells; test: Cell proliferation assay (MTT), DLD1; details: CRC cell line, FIG. 8D
[16] = tested on: HCT116 cells; test: Cell proliferation assay (MTT), HCT116; details: CRC cell line, FIG. 8D
[17] = tested on: NCI-H28 cells; test: Cell proliferation assay (MTT), NCI-H28; details: Homo sapiens, NCI-H28, read-out: IC50 NCI-H28 cell proliferation
[18] = tested on: NCI-H2052 cells; test: Cell proliferation assay (MTT), NCI-H2052; details: Homo sapiens, NCI-H2052, read-out: IC50 NCI-H2052 cell proliferation
[19] = molecular target: TEAD2 (Homo sapiens, UniProt Q15562); test: Inhibition of TEAD2 auto-palmitoylation in vitro; details: FIG. 1; 0.05 and 0.5 μM for 30 mins
Chain of TEAD2 (Q15562 whole entry): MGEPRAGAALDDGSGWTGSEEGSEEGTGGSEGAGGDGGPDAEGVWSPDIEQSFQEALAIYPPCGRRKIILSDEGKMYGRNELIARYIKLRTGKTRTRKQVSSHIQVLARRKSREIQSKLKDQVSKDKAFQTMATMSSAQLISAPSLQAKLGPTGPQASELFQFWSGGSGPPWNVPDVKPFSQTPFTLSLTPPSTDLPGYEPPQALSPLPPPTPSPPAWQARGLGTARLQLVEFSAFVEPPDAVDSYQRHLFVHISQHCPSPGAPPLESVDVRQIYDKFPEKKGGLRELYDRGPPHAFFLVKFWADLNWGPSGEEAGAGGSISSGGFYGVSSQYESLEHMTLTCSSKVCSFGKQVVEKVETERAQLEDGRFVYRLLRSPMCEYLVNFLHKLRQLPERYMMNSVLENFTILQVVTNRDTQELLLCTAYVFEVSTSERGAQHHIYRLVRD

For O=C(Nc1ccccc1)N1CCN(C(=O)c2cccc(OCCC3CCCCC3)c2)CC1 [TM2, 4-(3-(2-cyclohexylethoxy)benzoyl)-N-phenylpiperazine-1-carboxamide], the “Pan-TEAD palmitoylation at 100 nM (in words)” value ([1]; 100 nM) was “diminished”, the “endogenous TEAD1-4 (pan-TEAD) palmitoylation (in words)” value ([1]; HEK293A, 24 h, FIG. 2D) was “significantly inhibits” and the “block of YAP/TAZ-TEAD direct target genes (in words)” value [2] was “more efficient to block YAP/TAZ-TEAD target genes relative to K975”. For the same compound, the “Ki67 positive cells in organoids (in words)” value [3] was “significantly diminished”, the “combination with MEK inhibitor trametinib, HCT116 (in words)” value [4] was “strong inhibitory effects and substantial synergy” and the “combination with MEK inhibitor trametinib, DLD1 (in words)” value [5] was “strong inhibitory effects and substantial synergy”. The “PDL1 expression in cancer cell lines (in words)” value [6] was “inhibits PDL1 expression”, the “DHODH(H):(GI50 μM/1,10 μM)” value [7] was 5/6/15 and the “KNS62: value at 1 μM” value ([8]; 1 μM) was 37. For the same compound, the “KNS62: value at 10 μM” value ([8]; 10 μM) was 28, the “HCC95: value at 1 μM” value ([9]; 1 μM) was 37 and the “HCC95: value at 10 μM” value ([9]; 10 μM) was 65. For the same compound, the “Aq Sol” value [10] was 2.3 µM, the Met stab HLM, 15 min ([11]; 15 min) was 44% and the Met stab HLM, 60 min ([11]; 60 min) was 6%. The logD [12] was 4.6, the Met stab MLM, 15 min ([13]; 15 min) was 36% and the Met stab MLM, 60 min ([13]; 60 min) was 4%. For the same compound, the IC50 [14] was 26 nM, the “inhibition of DLD1 cell proliferation (in words)” value [15] was “did not exhibit strong inhibition” and the “inhibition of HCT116 cell proliferation (in words)” value [16] was “did not exhibit strong inhibition”. For the same compound, the IC50 [17] was > 5000 nM, the IC50 [18] was 157 nM and the “inhibition of TEAD2 auto-palmitoylation (in words)” value [19] was “most potent compound”.
